Test results: patent US11713305B2, “Zinc sensors for in vivo imaging of beta-cell function by MRI” (The Board of Regents of the University of Texas System, priority 2017, dated 2023)
pKd: −log10 of the molar value. Like-named read-outs stand apart in the source and are kept apart here. One block for each compound: values may come before it.

Columns and labels:
[1] = comparison Dy complexes; cited from earlier work
[2] = cited from earlier work
mouse pancreas = assay: In vivo MR imaging of glucose stimulated insulin secretion (GSIS) in the mouse pancreas; design: species or system C57B1/6 mice; settings: over the first 10-15 min after injection; 0.07 mmol/kg i.v., glucose IP
From the text: Both phases of insulin secretion are considered essential, but the early RRP phase that is thought to be the first signal reduced during the development of type 2 diabetes (Komatsu et al., 2013; Hosker et al., 1989). In principle, both phases of insulin secretion should be detectable by MRI if enough sensor is present in the extracellular space during the time-course of these events. Biphasic GSIS was not detected by MRI in previous experiments using the first generation Zn^2+ sensors with a high affinity for Zn^2+ but we hypothesized that GSIS may be more easily detected using these second-generation agents having a much lower affinity for Zn^2+. To test this, dynamic MRI scans were collected after administering either GdL1, GdL2, GdL3 or GdL4 to C57B1/6 mice via a tail vein (0.07 mmol/kg). Nearly simultaneously with agent injection, a bolus (50 μL) of 20% w/v glucose was administered IP to stimulate secretion of insulin.
All animal experiments were performed in accordance with guidelines set by the UT Southwestern Institutional Animal Care and Use Committee (IACUC). Male C57b1/6 mice were fasted for at least 12 hours before imaging experiments. The animals were anaesthetized with isofluorane and catheterized via the tail vein. Once the animals were secured inside a 38 mm volume coil, the pancreas was positioned in the center of the 9.4 T Varian MRI scanner. Two 3D T1-weighted gradient echo pre-injection scans were obtained (TE/TR=1.69/3.34 ms, NEX8, Matrix=128×128 ×128). 70 μl of 20 mM contrast agent were injected i.v. and 50 μl of 20% w/v D-glucose were injected intraperitoneally and consecutive 3D T1-weighted scans were obtained sequentially to monitor signal enhancement in the pancreas. Identification of the pancreas was accomplished by locating the tissues surrounded by the spleen, stomach, and kidneys. A total of 3 animals were scanned per group and images were quantified and analyzed using ImageJ (National Institutes of Health, Bethesda, Md.). The signal intensities from ROIs of the tip of the pancreas were measured before, at every ˜3-4 minutes post D-glucose injection over 30 minutes total. The values were normalized to the signal intensity obtained from a water phantom placed on the mouse abdomen. Contrast enhancement was calculated using the formula
[formula] Statistical analysis was performed by comparing the mean values using a two-tailed t-test. Statistical difference was evaluated using t-scores and p-values at a 95 and 99% confidence level.

[3] = Kinetic inertness (transmetalation by Zn(II) in phosphate buffer); format: physicochemical; settings: four equivalents of Zn^2+ in phosphate buffer (pH=7), 310 K
From the text: Shortly after the first confirmed clinical cases of nephrogenic systemic fibrosis (NSF), increased efforts have been made to design agents with high thermodynamic stability and kinetic inertness (Kallen et al., 2008; Reilly, 2008; Rofsky et al., 2008; Wiginton et al., 2008; Abujuden et al., 2009). The sensors shown here are very stable macrocyclic DO3A-monoamide derivatives with reported log KML>20. However, given that the agents reported here also have a high affinity for Zn^2+ ions, and Zn^2+ has been implicated as the major competing ion for transmetalation of Gd^3+ agents derived from linear polyamine ligands, the kinetic rate of Gd^3+ release is arguably the most critical factor in determining in vivo toxicity (Laurent et al., 2010). Using a previously published method (Laurent et al., 2010) consisting of incubating each agent with four equivalents of Zn^2+ in phosphate buffer (pH=7), we compared the kinetic stability of the agents reported here with the FDA-approved agent Magnevist® (GdDTPA, cf. FIG. 7).
Kinetic inertness was determined according to published procedures with minor modifications (Laurent et al., 2010; Silverio et al., 2009). Stock solutions of phosphate buffer (67 mM, pH=7.4), Gd(III) chelates (10 mM) and ZnCl2 (231 mM) were prepared first. Calculated volumes of stock solutions or water were pipetted into small glass vials to obtain a test solution of 300 μL with 30 mM phosphate, 1.5 mM Gd(III) chelate, and 6.0 mM Zn(II). Samples were measured 15 minutes after the sample temperature stabilized at 310 K. During the entire experiment, the samples inside the NMR tubes were kept in an incubator at 310 K. The T1 of the solutions was determined at 310 K and 0.47 T (20 MHz) at various time points within 7 days. As a reference, GdDTPA was analyzed under the same conditions. The R1^P relaxation rate is obtained by subtracting the diamagnetic contribution of the water relaxation (0.28 s-1) from the observed relaxation rate R1=(1/T1).

HSA = target: T1, HSA (Homo sapiens, UniProt P02768); settings: used in fitting; read-out: KD for dansylglycine (HSA); cited from earlier work
T1 construct: purchased Sigma-Aldrich

[4] = Measured at 25° C., Powell et al., 1994, 1996

T1 sequence (P02768 25-609): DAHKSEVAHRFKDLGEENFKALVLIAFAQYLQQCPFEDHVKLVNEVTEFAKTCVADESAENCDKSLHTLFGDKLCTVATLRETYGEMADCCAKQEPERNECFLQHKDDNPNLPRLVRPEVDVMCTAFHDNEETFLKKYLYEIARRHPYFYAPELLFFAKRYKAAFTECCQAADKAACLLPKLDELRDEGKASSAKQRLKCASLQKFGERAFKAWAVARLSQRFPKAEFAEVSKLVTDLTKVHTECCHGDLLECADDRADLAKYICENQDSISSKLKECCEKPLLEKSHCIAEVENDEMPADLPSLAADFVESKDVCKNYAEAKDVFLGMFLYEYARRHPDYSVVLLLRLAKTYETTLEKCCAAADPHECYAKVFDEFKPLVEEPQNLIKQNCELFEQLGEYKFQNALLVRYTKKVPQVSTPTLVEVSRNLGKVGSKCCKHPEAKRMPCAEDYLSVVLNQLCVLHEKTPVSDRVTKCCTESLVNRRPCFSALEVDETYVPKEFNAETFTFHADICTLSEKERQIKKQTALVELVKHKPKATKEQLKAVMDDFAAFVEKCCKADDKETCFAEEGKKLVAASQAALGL

SMILES: O=C([O-])CNC(=O)CN1CCN(CC(=O)NCC(=O)[O-])CCN(CC(=O)NCC(=O)[O-])CCN(CC(=O)NCC(=O)[O-])CC1.[Dy+3] [Dy DOTA-(gly)4]
1/T2m^298 [1]: 1000 10^4 s^−1
A1 [1]: −50 10^6rad s^−1K T^−1
A2 [1]: 0 10^9rad s^−1K^2 T^−1
ER [1]: -12 kcal/mol
kex^298 [1]: 0.09 10^6 s^−1
ΔH^‡ [1]: 12.7 kcal/mol

SMILES: O=C([O-])CN1CCN(CC(=O)[O-])CCN(CC(=O)[O-])CCN(CC(=O)[O-])CC1.[Dy+3] [DyDOTA]
1/T2m^298 [1]: 20 10^4 s^−1
A1 [1]: −50 10^6rad s^−1K T^−1
A2 [1]: 0 10^9rad s^−1K^2 T^−1
ER [1]: -21.5 kcal/mol
kex^298 [1]: 70 10^6 s^−1
ΔH^‡ [1]: 21.5 kcal/mol

SMILES: O=C([O-])CN1CCN(CC(=O)[O-])CCN(CC(=O)[O-])CCN(CC(=O)[O-])CC1.[Gd+3] [GdDOTA]
hyperfine coupling constant (AO/ℏ) [2, 4]: −3.7 ×10^6 rad/s
water exchange rate kex [2, 4]: 4.1e+06 s⁻¹
ER ([2]; reference complexes): 3.85 kcal/mol
EV ([2]; reference complexes): 0.239 kcal/mol
ΔH‡ ([2]; reference complexes): 11.9 kcal/mol
Δ^2 ([2]; reference complexes): 0.16 10^20 s^−2
τRO^298 ([2]; reference complexes): 77 ps
τV^298 ([2]; reference complexes): 11 ps

SMILES: CC(O)CN1CCN(CC(=O)[O-])CCN(CC(=O)[O-])CCN(CC(=O)[O-])CC1.[Gd+3] (centres unmarked) [GdHPDO3A, reference compound]
T1-weighted MR image enhancement in pancreatic tissues and kidneys (mouse pancreas): significant image enhancements

kinetic stability against transmetalation [3]: some transmetalation
SMILES: CNC[C@H](O)[C@@H](O)[C@H](O)[C@H](O)CO.CNC[C@H](O)[C@@H](O)[C@H](O)[C@H](O)CO.O=C([O-])CN(CCN(CC(=O)[O-])CC(=O)O)CCN(CC(=O)[O-])CC(=O)O.[Gd+3] [Magnevist, reference compound]

SMILES: CN(C)c1cccc2c(S(=O)(=O)NCC(=O)O)cccc12 [dansylglycine]
pKd (HSA): 5.60
